According to patent US12582617B2, “Methods for treating cancer” (RADIUS PHARMACEUTICALS, INC., priority 2015, dated 2026):
Counter-ions that a name gives are not always drawn.

Assay: Phase 1 dose escalation study: safety, treatment related AEs
Assay type: in vivo
Experimental: The subjects were 40-75 years old with BMI of 18.0-30 kg/m^2. Subjects having evidence of clinically relevant pathology, increased risk of stroke or of history venous thromboembolic events, or use of concomitant medication less than 14 days prior to admission to clinical research center (paracetamol allowed up to 3 days prior) were excluded.
The subjects were treated with placebo or at least one dose p.o., q.d. after a light breakfast for 7 days at dose levels of 200 mg, 500 mg, 750 mg and 1000 mg, respectively.

[1] = 200 to 1000 mg p.o., q.d., 7 days

CCNCCc1ccc(CN(CC)c2cc(OC)ccc2[C@@H]2CCc3cc(O)ccc3C2)cc1 [RAD1901, (6R)-6-(2-(N-(4-(2-(ethylamino)ethyl)benzyl)-N-ethylamino)-4-methoxyphenyl)-5,6,7,8-tetrahydronaphthalen-2-ol dihydrochloride]
Abdominal distension (treatment related AE) (750 mg, Gr3): 0 n(%)
Abdominal pain (treatment related AE) (750 mg, Gr3): 0 n(%)
Diarrhoea (treatment related AE) (750 mg, Gr3): 0 n(%)
Dizziness (treatment related AE) (750 mg, Gr3): 0 n(%)
Dyspepsia (treatment related AE) (750 mg, Gr3): 0 n(%)
Dysphagia (treatment related AE) (750 mg, Gr3): 0 n(%)
Flatulance (treatment related AE) (750 mg, Gr3): 0 n(%)
Headache (treatment related AE) (750 mg, Gr3): 0 n(%)
Hiccups (treatment related AE) (750 mg, Gr3): 0 n(%)
Hot flush (treatment related AE) (750 mg, Gr3): 0 n(%)
Myalgia (treatment related AE) (750 mg, Gr3): 0 n(%)
Nausea (treatment related AE) (750 mg, Gr3): 0 n(%)
Odynophagia (treatment related AE) (750 mg, Gr3): 0 n(%)
Oesophageal pain (treatment related AE) (750 mg, Gr3): 0 n(%)
Salivary hypersecretion (treatment related AE) (750 mg, Gr3): 0 n(%)
Sensation of a foreign body (treatment related AE) (750 mg, Gr3): 0 n(%)
Vomiting (treatment related AE) (750 mg, Gr3): 0 n(%)
Abdominal discomfort (treatment related AE) (1000 mg, Gr1): 0 n(%)
Abdominal distension (treatment related AE) (1000 mg, Gr1): 2 (29) n(%)
Abdominal pain (treatment related AE) (1000 mg, Gr1): 1 (14) n(%)
Diarrhoea (treatment related AE) (1000 mg, Gr1): 3 (43) n(%)
Dizziness (treatment related AE) (1000 mg, Gr1): 1 (14) n(%)
Dyspepsia (treatment related AE) (1000 mg, Gr1): 1 (14) n(%)
Dysphagia (treatment related AE) (1000 mg, Gr1): 0 n(%)
Flatulance (treatment related AE) (1000 mg, Gr1): 0 n(%)
Headache (treatment related AE) (1000 mg, Gr1): 2 (29) n(%)
Hiccups (treatment related AE) (1000 mg, Gr1): 2 (29) n(%)
Hot flush (treatment related AE) (1000 mg, Gr1): 1 (14) n(%)
Myalgia (treatment related AE) (1000 mg, Gr1): 0 n(%)
Nausea (treatment related AE) (1000 mg, Gr1): 4 (57) n(%)
Odynophagia (treatment related AE) (1000 mg, Gr1): 1 (14) n(%)
Oesophageal pain (treatment related AE) (1000 mg, Gr1): 1 (14) n(%)
Salivary hypersecretion (treatment related AE) (1000 mg, Gr1): 2 (29) n(%)
Sensation of a foreign body (treatment related AE) (1000 mg, Gr1): 4 (57) n(%)
Vomiting (treatment related AE) (1000 mg, Gr1): 0 n(%)
Abdominal discomfort (treatment related AE) (1000 mg, Gr2): 0 n(%)
Abdominal distension (treatment related AE) (1000 mg, Gr2): 0 n(%)
Abdominal pain (treatment related AE) (1000 mg, Gr2): 1 n(%)
Diarrhoea (treatment related AE) (1000 mg, Gr2): 1 n(%)
Dizziness (treatment related AE) (1000 mg, Gr2): 0 n(%)
Dyspepsia (treatment related AE) (1000 mg, Gr2): 1 n(%)
Dysphagia (treatment related AE) (1000 mg, Gr2): 0 n(%)
Flatulance (treatment related AE) (1000 mg, Gr2): 0 n(%)
Headache (treatment related AE) (1000 mg, Gr2): 0 n(%)
Hiccups (treatment related AE) (1000 mg, Gr2): 0 n(%)
Hot flush (treatment related AE) (1000 mg, Gr2): 0 n(%)
Myalgia (treatment related AE) (1000 mg, Gr2): 0 n(%)
Nausea (treatment related AE) (1000 mg, Gr2): 2 n(%)
Odynophagia (treatment related AE) (1000 mg, Gr2): 1 n(%)
Oesophageal pain (treatment related AE) (1000 mg, Gr2): 1 n(%)
Salivary hypersecretion (treatment related AE) (1000 mg, Gr2): 0 n(%)
Sensation of a foreign body (treatment related AE) (1000 mg, Gr2): 0 n(%)
Vomiting (treatment related AE) (1000 mg, Gr2): 3 n(%)
Abdominal discomfort (treatment related AE) (1000 mg, Gr3): 0 n(%)
Abdominal distension (treatment related AE) (1000 mg, Gr3): 0 n(%)
Abdominal pain (treatment related AE) (1000 mg, Gr3): 0 n(%)
Diarrhoea (treatment related AE) (1000 mg, Gr3): 0 n(%)
Dizziness (treatment related AE) (1000 mg, Gr3): 0 n(%)
Dyspepsia (treatment related AE) (1000 mg, Gr3): 0 n(%)
Dysphagia (treatment related AE) (1000 mg, Gr3): 0 n(%)
Flatulance (treatment related AE) (1000 mg, Gr3): 0 n(%)
Headache (treatment related AE) (1000 mg, Gr3): 0 n(%)
Hiccups (treatment related AE) (1000 mg, Gr3): 0 n(%)
Hot flush (treatment related AE) (1000 mg, Gr3): 0 n(%)
Myalgia (treatment related AE) (1000 mg, Gr3): 0 n(%)
Nausea (treatment related AE) (1000 mg, Gr3): 0 n(%)
Odynophagia (treatment related AE) (1000 mg, Gr3): 0 n(%)
Oesophageal pain (treatment related AE) (1000 mg, Gr3): 1 n(%)
Salivary hypersecretion (treatment related AE) (1000 mg, Gr3): 0 n(%)
Sensation of a foreign body (treatment related AE) (1000 mg, Gr3): 0 n(%)
Vomiting (treatment related AE) (1000 mg, Gr3): 0 n(%)
dose limiting toxicities (in words) [1]: No dose limiting toxicities (DLT) were observed
maximum tolerated dose (MTD) (in words) [1]: not established
Abdominal discomfort (treatment related AE) (Total Active, Gr1): 4 n(%)
Abdominal distension (treatment related AE) (Total Active, Gr1): 5 n(%)
Abdominal pain (treatment related AE) (Total Active, Gr1): 7 n(%)
Diarrhoea (treatment related AE) (Total Active, Gr1): 6 n(%)
Dizziness (treatment related AE) (Total Active, Gr1): 5 n(%)
Dyspepsia (treatment related AE) (Total Active, Gr1): 13 n(%)
Dysphagia (treatment related AE) (Total Active, Gr1): 4 n(%)
Flatulance (treatment related AE) (Total Active, Gr1): 5 n(%)
Headache (treatment related AE) (Total Active, Gr1): 9 n(%)
Hiccups (treatment related AE) (Total Active, Gr1): 9 n(%)
Hot flush (treatment related AE) (Total Active, Gr1): 11 n(%)
Myalgia (treatment related AE) (Total Active, Gr1): 3 n(%)
Nausea (treatment related AE) (Total Active, Gr1): 14 n(%)
Odynophagia (treatment related AE) (Total Active, Gr1): 4 n(%)
Oesophageal pain (treatment related AE) (Total Active, Gr1): 3 n(%)
Salivary hypersecretion (treatment related AE) (Total Active, Gr1): 8 n(%)
Sensation of a foreign body (treatment related AE) (Total Active, Gr1): 7 n(%)
Vomiting (treatment related AE) (Total Active, Gr1): 3 n(%)
Abdominal discomfort (treatment related AE) (Total Active, Gr2): 1 n(%)
Abdominal distension (treatment related AE) (Total Active, Gr2): 1 n(%)
Abdominal pain (treatment related AE) (Total Active, Gr2): 3 n(%)
Diarrhoea (treatment related AE) (Total Active, Gr2): 1 n(%)
Dizziness (treatment related AE) (Total Active, Gr2): 0 n(%)
Dyspepsia (treatment related AE) (Total Active, Gr2): 3 n(%)
Dysphagia (treatment related AE) (Total Active, Gr2): 3 n(%)
Flatulance (treatment related AE) (Total Active, Gr2): 0 n(%)
Headache (treatment related AE) (Total Active, Gr2): 1 n(%)
Hiccups (treatment related AE) (Total Active, Gr2): 0 n(%)
Hot flush (treatment related AE) (Total Active, Gr2): 0 n(%)
Myalgia (treatment related AE) (Total Active, Gr2): 2 n(%)
Nausea (treatment related AE) (Total Active, Gr2): 5 n(%)
Odynophagia (treatment related AE) (Total Active, Gr2): 2 n(%)
Oesophageal pain (treatment related AE) (Total Active, Gr2): 6 n(%)
Salivary hypersecretion (treatment related AE) (Total Active, Gr2): 0 n(%)
Sensation of a foreign body (treatment related AE) (Total Active, Gr2): 0 n(%)
Vomiting (treatment related AE) (Total Active, Gr2): 10 n(%)
Abdominal discomfort (treatment related AE) (Total Active, Gr3): 0 n(%)
Abdominal distension (treatment related AE) (Total Active, Gr3): 0 n(%)
Abdominal pain (treatment related AE) (Total Active, Gr3): 0 n(%)
Diarrhoea (treatment related AE) (Total Active, Gr3): 0 n(%)
Dizziness (treatment related AE) (Total Active, Gr3): 0 n(%)
Dyspepsia (treatment related AE) (Total Active, Gr3): 0 n(%)
Dysphagia (treatment related AE) (Total Active, Gr3): 0 n(%)
Flatulance (treatment related AE) (Total Active, Gr3): 0 n(%)
Headache (treatment related AE) (Total Active, Gr3): 0 n(%)
Hiccups (treatment related AE) (Total Active, Gr3): 0 n(%)
Hot flush (treatment related AE) (Total Active, Gr3): 0 n(%)
Myalgia (treatment related AE) (Total Active, Gr3): 0 n(%)
Nausea (treatment related AE) (Total Active, Gr3): 0 n(%)
Odynophagia (treatment related AE) (Total Active, Gr3): 0 n(%)
Oesophageal pain (treatment related AE) (Total Active, Gr3): 1 n(%)
Salivary hypersecretion (treatment related AE) (Total Active, Gr3): 0 n(%)
Sensation of a foreign body (treatment related AE) (Total Active, Gr3): 0 n(%)
Vomiting (treatment related AE) (Total Active, Gr3): 1 n(%)
Abdominal discomfort (treatment related AE) (Total TEAE, All): 5 (11)
Abdominal distension (treatment related AE) (Total TEAE, All): 6 (14)
Abdominal pain (treatment related AE) (Total TEAE, All): 10 (23)
Diarrhoea (treatment related AE) (Total TEAE, All): 7 (16)
Dizziness (treatment related AE) (Total TEAE, All): 5 (11)
Dyspepsia (treatment related AE) (Total TEAE, All): 16 (36)
Dysphagia (treatment related AE) (Total TEAE, All): 7 (16)
Flatulance (treatment related AE) (Total TEAE, All): 5 (11)
Headache (treatment related AE) (Total TEAE, All): 10 (23)
Hiccups (treatment related AE) (Total TEAE, All): 9 (20)
Hot flush (treatment related AE) (Total TEAE, All): 11 (25)
Myalgia (treatment related AE) (Total TEAE, All): 5 (11)
Nausea (treatment related AE) (Total TEAE, All): 19 (43)
Odynophagia (treatment related AE) (Total TEAE, All): 6 (14)
Oesophageal pain (treatment related AE) (Total TEAE, All): 10 (23)
Salivary hypersecretion (treatment related AE) (Total TEAE, All): 8 (18)
Sensation of a foreign body (treatment related AE) (Total TEAE, All): 7 (16)
Vomiting (treatment related AE) (Total TEAE, All): 14 (32)
